# Measured values as given in patent publication US9682994B2, “Inhibitors of retroviral replication” (The Scripps Research Institute, priority 2011, dated 2017).
# Like-named read-outs stand apart in the source and are kept apart here.
# What was measured:
# HIV-1 pNL43 = test: HIV-1 replication in PHA/IL-2 stimulated human PBMCs, p24 ELISA; assay type: cell-based
# Method: Freshly isolated uninfected human PBMCs were stimulated with PHA for two days, washed, and grown from then on in IL-2 alone. […] Antigen p24 was measured 5 days post infection using a sandwich ELISA kit.
# To isolate PBMCs, 24 ml of total blood diluted two fold in RPMI or PBS were carefully layered over 12 ml of Ficoll-paque and centrifuged at 2000 rpm for 20 min (brakes off). Resultant layers are approximately from top to bottom: plasma-platelets-PBMC-Ficoll-red blood cells (with granulocytes). Most of the plasma was pipetted off and discarded. The buffy coat with PBMC's was carefully removed from 3 large (50 ml) tubes and transferred to a new 50 ml tube. The remaining Ficoll and red blood cells were discarded in closed tubes. Enough PBS was added to the PBMCs to make up 50 ml and centrifuged at 1200 rpm for 10 min, brakes on. The supernatant was decanted and the pellet was loosened and washed twice with PBS. Washed pellet was recovered in 30 ml of RPMI 1640 supplemented with 10% serum, 1% Penicillin-streptomycin and mixed well. PBMCs were counted and plated at 1×10^6 cells/ml. To activate the PBMCs, PHA (phytohaemagglutinin) was added at 3 μg/ml. Two to three days later add Interleukin 2 (IL2) at 3×10^−3 μg/ml.
# PHA activated PBMCs were centrifuged and recovered at 6×10^6 cells in 3 ml complete RPMI. Then 3 ml of viral supernatant was added and incubated for 4 h at 37° C. After this period, cells were centrifuged, washed 3 times with PBS and recovered in 3 ml complete RPMI. PBMCs were plated at 0.5 ml per well in a 6-well plate, and 0.5 ml media with DMSO control or anti-viral control at 2× final concentration was added. IL-2 was added at 3×10^−3 μg/ml. Supernatant was recovered for p24 assay every 3-4 days post infection. Cells were split at 1×10^6 cell per ml every 5-7 days.
# HIV-1 transcription is intimately linked to T-cell activation due to shared motifs between the HIV-LTR and the regulatory regions in induced genes, namely NF-κB. A large variety of T cell stimuli activate NF-κB, including PHA, IL-2 and tumor necrosis factor alpha (TNF-α).
# Tat = test: Biotinylated compound streptavidin-bead pull-down of Tat; assay type: binding, HIV-1; settings: flag-tagged Tat expressed in cells or recombinant Tat
# Method: HEK293T cells were transfected with flag-tagged Tat 101 a.a. (Tat-F-101-wt), a shorter Tat version with 86 a.a. (Tat-F-86-wt), Tat 86 a.a. mutated in the basic domain (Tat-F-BRM), flag-tagged CDK11 (CDK11-F), flag-tagged 9G8 (9G8-F) and empty vector control.
# Recombinant Tat protein was incubated with Bio-dCA streptavidin-coated beads in the presence or absence of an excess of non-biotinylated dCA (represented as molar equivalent [eq.] of Bio-dCA). Raltegravir and recombinant GST-9G8 were used as a negative control competitor or as negative protein-binding control, respectively.
# DYNABEADS® MYONE™ Streptavidin T1 (12.5 μl slurry) (Invitrogen) were pre-saturated with 1.88 μl of 1 mM in DMSO of Biotin alone or Bio-dCA and incubated for 1 h at room temperature with orbital rocking, plus an additional 30 min with Biotin (0.63 μl of 1 mM in DMSO). Protein extracts (250 μg per sample) were incubated with the pre-saturated beads in lysis buffer supplemented with 0.1% BSA for 1 h at 4° C. with orbital rocking. After incubation, the beads were washed three times with lysis buffer.
# For the pull-down of recombinant Tat (#2222 of NIH) and GST-9G8, streptavidin-agarose beads (40 μl slurry) were pre-saturated with 1.5 μl of 1 mM in DMSO, Biotin alone, or Bio-dCA and incubated for 1 h at room temperature. […] After incubation, the beads were washed three times with PBS and proteins were eluted as before.
# HIV-1 pNL4-3 = test: Chronically HIV-1 infected HeLa-CD4 cells, viral RNA by qRT-PCR / p24; assay type: cell-based
# Method: FIG. 1G: p24 antigen quantification. Viral supernatants recovered from cells described in FIG. 1B, grown for 60 days, were assayed for their p24 antigen content using a sandwich ELISA kit. Error bars represent standard deviations.
# First-strand cDNA from RNA for qPCR was prepared using […]™ first-strand cDNA kit (Invitrogen), following the manufacturer's instructions, using approximately 5 μg of RNA as starting material and random hexamers as first-strand primers. Quantitative PCR was performed with an aliquot of cDNA as template, using […]® 480 SYBR Green I Master (Roche) in a 20 μL reaction according to the manufacturer's instructions. […] The primers used were as follows: […]
# Such an early time point rules out de novo infections. […] This conclusion was further supported by the fact that treatment of cells that were chronically infected, and therefore continuously shedding the virus (without incurring new infections, due to down-regulation of CD4 from the cell surface), reduced virus production to undetectable levels (FIG. 1F). […] Results were similar when viral release from cells treated for 60 days were measured by p24 enzyme-linked immunosorbent assay (ELISA) (FIG. 1G).
# NF-kB reporter construct = test: TNF-α activation of NF-kB luciferase reporter in TE671 cells; assay type: cell-based
# Method: FIG. 8B: TE671 cells were transfected with an NF-kB luciferase reporter plasmid. The following day cells were treated with TNF-α in presence or absence of dCA. Cells were lysed 5 hours later and Luciferase activity was measured as in FIG. 8A.
# TE671 cells were plated at 6.25×10^4 per well in a 24-well plate. Cells were transfected twenty-four hours later with either 200 ng or 400 ng of NF-kB-Luc (Promega, Cat No. E8491) using Fugene 6 (Roche) per manufacturer's instruction. […] Cells were lysed 5 hours later with 1× Lysis Buffer and luciferase activity was measured using the luciferase Assay System (Promega) on a Berthhold luminometer. Protein concentration was determined by Bradford assay. Results corresponding to the adjustment of the luciferase activity per protein concentration of each sample are shown as Relative light units (RLU). Experiments were performed in triplicate.
# HIV-2 (ROD/A) = test: Acute HIV-2 replication in HeLa-CD4 cells, p24 ELISA; assay type: cell-based; settings: p24, 5 days post-infection
# Excerpt: Antigen p24 in the supernatant measured using a sandwiched ELISA kit, 5 days post-infection.
structure (smiles),measurement,setting,value
"CN(C)[C@H]1C[C@@]23CC[C@@]4(O2)C(=CC[C@]2(C)C(c5ccc6ccncc6c5)=CC[C@H]24)C=C3[C@@H](O)[C@@H]1O [dCA, didehydro-Cortistatin A]",maximum inhibition plateau in PBMCs,HIV-1 pNL43,86%
same,EC50,"HIV-1 pNL43; p24 ELISA, 5 days post infection, read-out: EC50, HIV-1 replication in primary cells (PBMCs)",< 1 nM
same,interaction with Tat (pull-down),Tat,interacted directly
same,inhibition of viral replication,HIV-1 pNL4-3; chronically infected cells grown in 100 nM for longer periods,99%
same,EC50,HIV-1 pNL4-3; read-out: EC50 for abrogating chronic HIV infection,< 0.1 nM
same,EC50,"HIV-1 pNL4-3; treatment for 10 or 60 days, read-out: EC50, reduction of viral cellular RNA levels",≥ 0.1 nM
same,EC90,"HIV-1 pNL4-3; treatment for 10 or 60 days, read-out: EC90, reduction of viral cellular RNA levels",< 10 nM
same,TNFα activation of an NF-κB reporter construct,NF-kB reporter construct,no effect
same,EC50,HIV-2 (ROD/A),~5 nM
